Measurements published in PubChem BioAssay AID1918948 (Molecular Pharmacology Branch, DTP, NCI, 2023).

Test system: K-562 leukemia growth, % test/control
Assay: Anticancer human tumor K-562 cell line growth inhibition;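 further: spheroids exposed to compounds for 7 days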;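 on viability, T/C: 100% = DMSO vehicle wells and lower values mean fewer viable cells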
Settings: spheroids with HUVEC and MSC; for IC50: curve of first compound; for viability, T/C: stronger effect = lower value
Method in brief: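 Multicellular complex spheroids of tumor cells with human endothelial cells (HUVEC) and mesenchymal stem cells; the LSD1 inhibitor iadademstat was combined with standard-of-care or investigational agents. Top concentration at or near clinical Cmax, half-log dilutions; final DMSO ≤0.25%.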

[1] = second compound 0.1 µM, first compound 0.000949 µM
[2] = second compound 0.1 µM, first compound 0.003 µM
[3] = second compound 0.1 µM, first compound 0.00949 µM
[4] = second compound 0.1 µM, first compound 0.03 µM
[5] = second compound 0.1 µM, first compound 0.0949 µM
[6] = second compound 0.1 µM, first compound 0.3 µM
[7] = second compound 0.316 µM, first compound 0.000949 µM
[8] = second compound 0.316 µM, first compound 0.003 µM
[9] = second compound 0.316 µM, first compound 0.00949 µM
[10] = second compound 0.316 µM, first compound 0.03 µM
[11] = second compound 0.316 µM, first compound 0.0949 µM
[12] = second compound 0.316 µM, first compound 0.3 µM
[13] = second compound 1 µM, first compound 0.000949 µM
[14] = second compound 1 µM, first compound 0.003 µM
[15] = second compound 1 µM, first compound 0.00949 µM
[16] = second compound 1 µM, first compound 0.03 µM
[17] = second compound 1 µM, first compound 0.0949 µM
[18] = second compound 1 µM, first compound 0.3 µM
[19] = second compound 3.16 µM, first compound 0.000949 µM
[20] = second compound 3.16 µM, first compound 0.003 µM
[21] = second compound 3.16 µM, first compound 0.00949 µM
[22] = second compound 3.16 µM, first compound 0.03 µM
[23] = second compound 3.16 µM, first compound 0.0949 µM
[24] = second compound 3.16 µM, first compound 0.3 µM
[25] = second compound 10 µM, first compound 0.000949 µM
[26] = second compound 10 µM, first compound 0.003 µM
[27] = second compound 10 µM, first compound 0.00949 µM
[28] = second compound 10 µM, first compound 0.03 µM
[29] = second compound 10 µM, first compound 0.0949 µM
[30] = second compound 10 µM, first compound 0.3 µM
[31] = second compound 0.1 µM, first compound 0.00316 µM
[32] = second compound 0.1 µM, first compound 0.01 µM
[33] = second compound 0.1 µM, first compound 0.0316 µM
[34] = second compound 0.1 µM, first compound 0.1 µM
[35] = second compound 0.316 µM, first compound 0.00316 µM
[36] = second compound 0.316 µM, first compound 0.01 µM
[37] = second compound 0.316 µM, first compound 0.0316 µM
[38] = second compound 0.316 µM, first compound 0.1 µM
[39] = second compound 1 µM, first compound 0.00316 µM
[40] = second compound 1 µM, first compound 0.01 µM
[41] = second compound 1 µM, first compound 0.0316 µM
[42] = second compound 1 µM, first compound 0.1 µM
[43] = second compound 3.16 µM, first compound 0.00316 µM
[44] = second compound 3.16 µM, first compound 0.01 µM
[45] = second compound 3.16 µM, first compound 0.0316 µM
[46] = second compound 3.16 µM, first compound 0.1 µM
[47] = second compound 10 µM, first compound 0.00316 µM
[48] = second compound 10 µM, first compound 0.01 µM
[49] = second compound 10 µM, first compound 0.0316 µM
[50] = second compound 10 µM, first compound 0.1 µM

Work on Nc1ccn(C2OC(CO)C(O)C2(F)F)c(=O)n1 (stereo not given) + NC1CC1c1ccc(-c2cccc(O)c2)cc1 yielded an IC50 (second compound 0.1 µM) of 9.42 nM, an IC50 (second compound 0.316 µM) of 8.17 nM and an IC50 (second compound 1 µM) of 7.91 nM. For the same compound, the IC50 (second compound 3.16 µM) was 6.77 nM, the IC50 (second compound 10 µM) was 5.86 nM and the viability, T/C [1] was 105%. The viability, T/C [2] was 99.8%, the viability, T/C [3] was 49.8% and the viability, T/C [4] was 12.8%. It also gave a viability, T/C [5] of 10.7%, a viability, T/C [6] of 11.8% and a viability, T/C [7] of 107%. It also gave a viability, T/C [8] of 102%, a viability, T/C [9] of 42.1% and a viability, T/C [10] of 10.5%. It also gave a viability, T/C [11] of 8.16%, a viability, T/C [12] of 8.05% and a viability, T/C [13] of 106%. The viability, T/C [14] was 102%, the viability, T/C [15] was 40.2% and the viability, T/C [16] was 7.41%. The viability, T/C [17] was 7.12%, the viability, T/C [18] was 7.2% and the viability, T/C [19] was 103%. The viability, T/C [20] was 101%, the viability, T/C [21] was 29% and the viability, T/C [22] was 6.83%. It also gave a viability, T/C [23] of 6.72%, a viability, T/C [24] of 7.82% and a viability, T/C [25] of 100%. It also gave a viability, T/C [26] of 93.2%, a viability, T/C [27] of 19% and a viability, T/C [28] of 5.75%. It also gave a viability, T/C [29] of 6.04% and a viability, T/C [30] of 7.9%.
CC(C)CC(NC(=O)CNC(=O)c1cc(Cl)ccc1Cl)B1OC(=O)CC(CC(=O)O)(C(=O)O)O1 (stereo not given) + NC1CC1c1ccc(-c2cccc(O)c2)cc1 gave an IC50 (second compound 0.1 µM) of 14.2 nM, an IC50 (second compound 0.316 µM) of 12.7 nM and an IC50 (second compound 1 µM) of 9.67 nM. The IC50 (second compound 3.16 µM) was 7.83 nM, the IC50 (second compound 10 µM) was 6.56 nM and the viability, T/C (second compound 0.1 µM, first compound 0.000316 µM) was 110%. For the same compound, the viability, T/C (second compound 0.1 µM, first compound 0.001 µM) was 105%, the viability, T/C [31] was 107% and the viability, T/C [32] was 66.6%. For the same compound, the viability, T/C [33] was 11.4%, the viability, T/C [34] was 2.83% and the viability, T/C (second compound 0.316 µM, first compound 0.000316 µM) was 107%. It also gave a viability, T/C (second compound 0.316 µM, first compound 0.001 µM) of 99.7%, a viability, T/C [35] of 102% and a viability, T/C [36] of 60%. It also gave a viability, T/C [37] of 10.7%, a viability, T/C [38] of 2.8% and a viability, T/C (second compound 1 µM, first compound 0.000316 µM) of 103%. The viability, T/C (second compound 1 µM, first compound 0.001 µM) was 96.1%, the viability, T/C [39] was 102% and the viability, T/C [40] was 48.4%. The viability, T/C [41] was 9.51%, the viability, T/C [42] was 2.55% and the viability, T/C (second compound 3.16 µM, first compound 0.000316 µM) was 101%. The viability, T/C (second compound 3.16 µM, first compound 0.001 µM) was 96.6%, the viability, T/C [43] was 101% and the viability, T/C [44] was 36.7%. The viability, T/C [45] was 9.01%, the viability, T/C [46] was 2.3% and the viability, T/C (second compound 10 µM, first compound 0.000316 µM) was 95.5%. The viability, T/C (second compound 10 µM, first compound 0.001 µM) was 96.8%, the viability, T/C [47] was 97.2% and the viability, T/C [48] was 23.1%. For the same compound, the viability, T/C [49] was 5.77% and the viability, T/C [50] was 1.88%.
COc1cc(Nc2ncc3c(n2)-c2ccc(Cl)cc2C(c2c(F)cccc2OC)=NC3)ccc1C(=O)O + NC1CCC(NC2CC2c2ccccc2)CC1 gave an IC50 (second compound 0.1 µM) of 3.23 nM, an IC50 (second compound 0.316 µM) of 3.86 nM and an IC50 (second compound 1 µM) of 3.25 nM. It also gave an IC50 (second compound 3.16 µM) of 3.29 nM, an IC50 (second compound 10 µM) of under 3.16 nM and a viability, T/C [31] of 51%. The viability, T/C [32] was 21.1%, the viability, T/C [33] was 20.4% and the viability, T/C [34] was 17.8%. For the same compound, the viability, T/C (second compound 0.1 µM, first compound 0.316 µM) was 14.6%, the viability, T/C (second compound 0.1 µM, first compound 1 µM) was 10.7% and the viability, T/C [35] was 55.8%. For the same compound, the viability, T/C [36] was 22.6%, the viability, T/C [37] was 22% and the viability, T/C [38] was 19.3%. It also gave a viability, T/C (second compound 0.316 µM, first compound 0.316 µM) of 13.9%, a viability, T/C (second compound 0.316 µM, first compound 1 µM) of 11.1% and a viability, T/C [39] of 51.4%. For the same compound, the viability, T/C [40] was 21%, the viability, T/C [41] was 23.4% and the viability, T/C [42] was 16.7%. The viability, T/C (second compound 1 µM, first compound 0.316 µM) was 13.1%, the viability, T/C (second compound 1 µM, first compound 1 µM) was 12.1% and the viability, T/C [43] was 51.1%. The viability, T/C [44] was 21.3%, the viability, T/C [45] was 23.7% and the viability, T/C [46] was 21.4%. For the same compound, the viability, T/C (second compound 3.16 µM, first compound 0.316 µM) was 18.5%, the viability, T/C (second compound 3.16 µM, first compound 1 µM) was 12.1% and the viability, T/C [47] was 46.5%. For the same compound, the viability, T/C [48] was 22.1%, the viability, T/C [49] was 25.6% and the viability, T/C [50] was 24.6%. For the same compound, the viability, T/C (second compound 10 µM, first compound 0.316 µM) was 19.9% and the viability, T/C (second compound 10 µM, first compound 1 µM) was 12.6%.
Compound CCc1c2c(nc3ccc(O)cc13)-c1cc3c(c(=O)n1C2)COC(=O)[C@]3(O)CC + NC1CCC(NC2CC2c2ccccc2)CC1 has an IC50 (second compound 0.1 µM) of under 0.949 nM, an IC50 (second compound 0.316 µM) of under 0.949 nM and an IC50 (second compound 1 µM) of under 0.949 nM. The IC50 (second compound 3.16 µM) was under 0.949 nM, the IC50 (second compound 10 µM) was under 0.949 nM and the viability, T/C [1] was 5.18%. It also gave a viability, T/C [2] of 3.15%, a viability, T/C [3] of 1.66% and a viability, T/C [4] of 1.09%. The viability, T/C [5] was 0.45%, the viability, T/C [6] was 0.5% and the viability, T/C [7] was 5.49%. For the same compound, the viability, T/C [8] was 3.06%, the viability, T/C [9] was 1.72% and the viability, T/C [10] was 2.09%. For the same compound, the viability, T/C [11] was 0.56%, the viability, T/C [12] was 0.51% and the viability, T/C [13] was 5.31%. It also gave a viability, T/C [14] of 3.05%, a viability, T/C [15] of 1.8% and a viability, T/C [16] of 1.24%. It also gave a viability, T/C [17] of 1.88%, a viability, T/C [18] of 0.5% and a viability, T/C [19] of 5.35%. The viability, T/C [20] was 3.03%, the viability, T/C [21] was 1.7% and the viability, T/C [22] was 1.4%. The viability, T/C [23] was 0.45%, the viability, T/C [24] was 0.47% and the viability, T/C [25] was 4.28%. It also gave a viability, T/C [26] of 2.29%, a viability, T/C [27] of 1.7% and a viability, T/C [28] of 1.31%. It also gave a viability, T/C [29] of 0.58% and a viability, T/C [30] of 2.36%.
